From patent publication EP0071535B1, “(4-(2 and/or 3-Thienylacetamido)-phenoxy)-hydroxyaminopropanes, their preparation, their therapeutic use and intermediates” (CARPIBEM (CENTRE D'ACTIVITE ET DE RECHERCHE PHARMACEUTIQUE …, priority 1981, dated 1983) come the findings set out here.

Assay [1] has as its system rat génétiquement hypertendu: Rat OKAMOTO. As to the kind of experiment: Antihypertensive activity in spontaneously hypertensive rats (tail-cuff systolic pressure and heart rate after oral dosing). The class given is in vivo. The conditions noted are these: 64 mg.kg^-1 V.O.
Assay [2] deals with effets β1 (augmentation de la force contractile du myocarde) de l'isoprénaline. As to the kind of experiment: β-blocking activity: inhibition of the β1 effects of intravenous isoprenaline in anaesthetised dogs. The class given is in vivo, chiens. The conditions noted are these: Canis lupus familiaris, iv, dog, inhibition given with negative sign, read-out: % d'inhibition des effets β1^(+) de l'Isoprénaline.

Assay [3] has as its system effets β2 (diminution de la pression artérielle diastolique) de l'isoprénaline. Put plainly: β-blocking activity: inhibition of the β2 effects of intravenous isoprenaline in anaesthetised dogs. The class given is in vivo, chiens. The conditions noted are these: Canis lupus familiaris, iv, dog, inhibition given with negative sign, read-out: % d'inhibition des effets β2^⊕ de l'Isoprénaline.

`CC(C)NCC(O)COc1ccc(NC(=O)Cc2cccs2)cc1F` (centres unmarked) [exemple 48, 1-[2-fluoro 4-(2-thiénylacétamido)phénoxy] 3-isopropylamino 2-propanol]: the “Fréquence cardiaque Δ (battements/min) T+1 heure m (sm)” value in assay [1] (T+1 heure) was “+38 (10) battements/min”. In assay [1] (T+1 heure), the “Pression systolique Δ (mmHg) T+1 heure m (sm)” value is reported as -51 (6) mmHg. Further, in assay [1] (T+3 heures), the “Fréquence cardiaque Δ (battements/min) T+3 heures m (sm)” value was “+41 (8) battements/min”. In assay [1] (T+3 heures), the “Pression systolique Δ (mmHg) T+3 heures m (sm)” value is recorded as -50 (6) mmHg. Besides, the “Fréquence cardiaque Δ (battements/min) T+5 heures m (sm)” value in assay [1] (T+5 heures) is listed as “+27 (10) battements/min”. For the same molecule, the “Pression systolique Δ (mmHg) T+5 heures m (sm)” value in assay [1] (T+5 heures) is recorded as -45 (6) mmHg. The results for the inhibition at 0.001 mg/kg in assay [2] (0,001 mg/kg I.V.) and in assay [3] (0,001 mg/kg I.V.) were -11% and -27%, respectively. Moreover, the inhibition at 0.003 mg/kg in assay [2] (0,003 mg/kg I.V.) is -23%; in assay [3] (0,003 mg/kg I.V.) it was -31%. Further, the inhibition at 0.01 mg/kg was -41% in assay [2] (0,010 mg/kg I.V.) and -46% in assay [3] (0,010 mg/kg I.V.). Moreover, the inhibition at 0.1 mg/kg in assay [2] (0,100 mg/kg I.V.) was -83%; in assay [3] (0,100 mg/kg I.V.), -52%.
